According to patent US12528792B2, “Sulfonamide compounds and the use thereof in the treatment of cancer” (TROBIO THERAPEUTICS PTY LTD, priority 2019, dated 2026):
Where two headings read alike, the source gives them in different places.

How the values were obtained:
Assay type in all cases: cell-based
[1] = test system: A2780 (ovarian) cells; assay: Anti-proliferative activity, Cell-Titre luminescent viability assay; details: Homo sapiens, 72 h exposure, Cell-Titre luminescent reagent
Outline: (§1)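 Cells attached 24 h at 37° C., 5% CO2, then treated 72 h with compound at 0.3–100 μM or 0.1–30 μM. Viability read by Cell-Titre luminescence after 30 min reagent exposure, normalized to vehicle; EC50 from variable-slope sigmoidal nonlinear regression.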

[2] = test system: A549 (NSCLC) cells; assay: as above; details: Homo sapiens, 72 h exposure, Cell-Titre luminescent reagent
Outline: as §1

[3] = test system: SK-N-SH neuroblastoma cells; assay: Cytotoxicity assay, MTS viability; details: Homo sapiens, 72 hours
Outline: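 SK-N-SH cells, 2×10^3/well in DMEM with 10% FBS at 37 °C, treated with 1:2 compound series from 100 μM; MTS viability read after 72 hours. Viability normalised to vehicle control; EC50 taken from dose-response curves.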

[4] = test system: A2780 ovarian cancer cells; assay: In vitro growth inhibition assay, Alamar Blue, single agent IC50; details: Homo sapiens
Procedure: (§2) In vitro growth inhibition assays were performed as technical triplicate in two independent experiments and cell viability was assessed by Alamar Blue assay readout. Briefly, cells in logarithmic phase growth were seeded in 384-well plates in a 50 μL/well assay volume. Cells were seeded at 1,200 cells/well using a Multidrop 384 (Thermo Scientific) and allowed to adhere at 37° C. with 5% CO2, in a humidified atmosphere (LiCONIC incubator). After 24 hours incubation, test compounds, positive control (20 μM Thonzonium bromide, 100% kill) and vehicle only (0.4% DMSO) were added into wells of each assay plate using a Tecan HP D300 Digital Dispenser in technical triplicate under minimum light. Following 72 hours drug exposure, metabolic activity was detected by addition of 10% (v/v) Alamar Blue reagent to each assay well using a Multidrop Cambi (Thermo Scientific) and determined by measurement of fluorescence intensity (excitation 555 nm, emission 585 nm) using an EnSpire (Perkin Elmer) plate reader. Readings were performed at 0 hour (background) and after 6 hours alamar blue incubation at 37° C.
Each drug was tested as a 10-point concentration series with two-fold serial dilutions of each drug. The concentration series for compounds 6 and 8 was 100, 50, 25, 12.5, 6.25, 3.125, 1.563, 0.781, 0.391 and 0.195 μM and for compounds 24, 43 and 48 was 50, 25, 12.5, 6.25, 3.125, 1.563, 0.781, 0.391, 0.195 and 0.098 μM for the two independent experiments. The concentration series for vinorelbine and paclitaxel was 100, 50, 25, 12.5, 6.25, 3.125, 1.5625, 0.781, 0.391 and 0.195 nM. Thonzonium bromide (20 μM) and 0.4% DMSO were used as positive and vehicle controls, respectively. The IC50 value was calculated by derivation of the best-fit line using a sigmoidal dose response model (Activity Base Software Suite, IDES).
Activity Base software suite (IDES, version 8.3.0.175) was used for data analysis. Cell survival is expressed as a percentage of viable cells. IC50 concentrations were calculated by derivation of the best-fit line using a sigmoidal dose response model with technical triplicate data points.

[5] = test system: A2780 ovarian cancer cells; assay: Drug combination screen, 6x6 dose matrix, Bliss-independence synergy; set-up: key to Max. Synergy, Vinorelbine: Bliss synergy score; 0 = no synergy, negative = antagonism; highest in matrix; key to Total Synergy, Vinorelbine: sum of Bliss synergy scores across the dose matrix; details: 72 h (26*: 96-well plate format); for Max. Synergy, Paclitaxel / Total Synergy, Paclitaxel: combination with paclitaxel; for Max. Synergy, Paclitaxel / Max. Synergy, Vinorelbine: Bliss score; for Total Synergy, Paclitaxel / Total Synergy, Vinorelbine: sum of Bliss scores of the matrix; for Max. Synergy, Vinorelbine / Total Synergy, Vinorelbine: combination with vinorelbine
Procedure: as §2
The two drugs in each combination matrix were dispensed using a Tecan HP D300 Digital Dispenser. Assays were performed in triplicate for each drug combination (test compound/vinorelbine and test compound/paclitaxel combinations). Synergistic drug interactions were calculated from the averaged cell viability data using the methodology described below.
Synergistic drug interactions were determined for each pa1rw1se drug combination by applying the Bliss-independence model that assumes independence of drug mechanisms. Prior to the analysis, percent cell viability (CV) for combination data were converted to fractional cell growth inhibition (GI) by the formula: […]
The Bliss additivism model was used to calculate a predicted combined response C to two single agents with responses A and B (using GI values), as follows:
The final score for any combination was reported as the difference between the value predicted by the additive model and the experimentally observed value, normalised to 100. Using GI values the maximum possible synergy score is 100, with 0 indicating no synergy and negative indicating possible antagonism. Scores were also reported as a “Max synergy” score, which is the highest individual synergy score for each combination matrix, and a “Total synergy” score, which was obtained by summation of each individual synergy score for the matrix.
The single agent IC50 values for the test compounds and their synergy scores in combination with vinorelbine and paclitaxel are presented in Table 4. The data is listed as IC50 mean from technical triplicates for two independent experiments. The averaged IC50 concentrations for the single agents from both runs were then used to generate the 6×6 dose matrices in the synergy experiment. Synergy scores for each drug combination were calculated by the Bliss-independence model. The maximum synergy and total synergy scores for each combination in A2780 cells are listed.

[6] = test system: Caco-2 (colorectal) cells; assay: Anti-proliferative activity, Cell-Titre luminescent viability assay; details: Homo sapiens, 72 h exposure, Cell-Titre luminescent reagent
Outline: as §1

[7] = test system: MIA PaCa-2 (pancreatic) cells; assay: as above; details: Homo sapiens, 72 h exposure, Cell-Titre luminescent reagent
Outline: as §1

[8] = test system: PC3 (prostate) cells; assay: as above; details: 72 h exposure, Cell-Titre luminescent reagent
Outline: as §1

[9] = target: T1, Tpm3.1-containing actin microfilaments in SK-N-SH neuroblastoma cells (Homo sapiens, UniProt P06753); assay: Imaging and quantitation of Tpm3.1 mCherry and 488-Atto-Phalloidin actin filaments; details: 24 hours post-treatment, two concentrations, FIG. 2 and FIG. 3
T1 construct: expressed in transfected cells; host or cells: SK-N-SH neuroblastoma cells
T1 sequence (P06753 1-248 isoform P06753-2): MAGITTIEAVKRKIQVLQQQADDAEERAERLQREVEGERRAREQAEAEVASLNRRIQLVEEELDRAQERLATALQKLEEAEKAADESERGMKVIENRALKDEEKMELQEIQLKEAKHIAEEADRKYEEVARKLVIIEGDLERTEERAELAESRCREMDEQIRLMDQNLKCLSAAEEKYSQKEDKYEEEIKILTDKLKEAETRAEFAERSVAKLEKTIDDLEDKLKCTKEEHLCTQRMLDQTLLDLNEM
Procedure: The ability of compounds 24, 26 and 143 to disrupt Tpm3.1-containing actin microfilaments was investigated in SK—N—SH neuroblastoma cells that express Tpm3.1 labelled with the mCherry fluorophore. Cells were seeded at 3×10^4 cells per well in a volume of 1000 μL complete media onto a 12 well plate containing 13 mm coverslips and left to plate down for 24 hours prior to treatment. Cells were then treated with DMSO and two concentrations of the test compounds. 24 hours post-treatment, cells were fixed with 16% paraformaldehyde (PBS) and stained with 488-Atto-Phalloidin to visualise the actin filament bundles. Single plane images were obtained using the Olympus IX83 epi-fluorescence microscope. Ten fields of view were collected for both Tpm3.1 mCherry fluorophore (FIG. 2) and 488-Atto-Phalloidin (FIG. 3) with each treatment condition.
Quantitation of either Tpm3.1 mCherry filaments or 488-Atto-Phalloidin filaments was performed using ImageJ 1.52p software (ImageJ, NIH). The mean pixel intensity from a cell was measured by using a line across the entire cell cytoplasmic area above or below the nuclear region. The line was made to cross the filament bundles at a 90° angle for the measurement rather than run along a single filament. A total of n=100 cells were measured from ten fields of view. […]

[10] = 72 h drug exposure, Alamar Blue, 384-well (26*: 96-well plate format), read-out: Single-agent IC50
[11] = single agent, 96-well plate format, read-out: Dose matrix IC50 concentrations

| SMILES | IC50 [1] [µM] | IC50 [2] [µM] | IC50 [3] [µM] | IC50 [4, 10] [µM] | Max. Synergy, Paclitaxel [5] | Total Synergy, Paclitaxel [5] | Max. Synergy, Vinorelbine [5] | Total Synergy, Vinorelbine [5] | IC50 [4, 11] [µM] | IC50 [6] [µM] | IC50 [7] [µM] | IC50 [8] [µM] | Disruption of Tpm3.1-containing actin microfilaments [9] |
| --- | --- | --- | --- | --- | --- | --- | --- | --- | --- | --- | --- | --- | --- |
| Cc1ccc(NC(=O)c2ccn(S(=O)(=O)c3ccc4[nH]ccc4c3)c2)cc1 [Compound 43, 1-((1H-indol-5-yl)sulfonyl)-N-(p-tolyl)-1H-pyrrole-3-carboxamide] | 1.9 | 18 | 17.4 | 13 | 12.46 | 3.06 | 10.94 | 73.13 |  |  |  |  |  |
| CC(=O)O[C@H]1C(=O)[C@@]2(C)[C@H]([C@H](OC(=O)c3ccccc3)[C@]3(O)C[C@H](OC(=O)[C@H](O)[C@@H](NC(=O)c4ccccc4)c4ccccc4)C(C)=C1C3(C)C)[C@]1(OC(C)=O)CO[C@@H]1C[C@@H]2O [paclitaxel, reference compound] |  |  |  |  |  |  |  |  | 0.004 |  |  |  |  |
| O=C(Nc1ccc(F)cc1)c1ccn(S(=O)(=O)c2ccc3[nH]ccc3c2)c1 [Compound 48, 1-((1H-indol-5-yl)sulfonyl)-N-(4-fluorophenyl)-1H-pyrrole-3-carboxamide] | 2.5 | 3.3 | 7.56 | 14.9 | 31.55 | 263.84 | 17.28 | 68.74 |  |  |  |  |  |
| O=C(Nc1ccc(C(F)(F)F)cc1)C1CCN(S(=O)(=O)c2ccc3[nH]ccc3c2)CC1 [Compound 8, 1-((1H-indol-5-yl)sulfonyl)-N-(4-(trifluoromethyl)phenyl)piperidine-4-carboxamide] | 11.7 | 12.1 | 11.4 | 14.5 | 8.95 | −3.62 | 32.29 | 225.43 |  |  |  |  |  |
| CCC1=C[C@@H]2CN(C1)Cc1c([nH]c3ccccc13)[C@@](C(=O)OC)(c1cc3c(cc1OC)N(C)[C@H]1[C@@](O)(C(=O)OC)[C@H](OC(C)=O)[C@]4(CC)C=CCN5CC[C@]31[C@@H]54)C2 [vinorelbine, reference compound] |  |  |  |  |  |  |  |  | 0.004 |  |  |  |  |
| CCC(C)c1ccc(NC(=O)C2CCN(S(=O)(=O)c3ccc4[nH]ccc4c3)CC2)cc1 (stereo not shown) [Compound 6, 1-((1H-indol-5-yl)sulfonyl)-N-(4-(sec-butyl)phenyl)piperidine-4-carboxamide] | 15.1 | 24.9 | 5.66 | 12 | 6.78 | −46.04 | 42.36 | 250.66 |  |  |  |  |  |
| CCC(C)c1ccc(NC(=O)c2ccn(S(=O)(=O)c3ccc4[nH]ccc4c3)c2)cc1 (stereo not shown) [Compound 24, 1-((1H-indol-5-yl)sulfonyl)-N-(4-(sec-butyl)phenyl)-1H-pyrrole-3-carboxamide] | 2.5 | 6 | 7.4 | 7.54 | 16.56 | 111.86 | 14.27 | 61.75 |  | 8.45 | 8.16 | 6.2 | disrupt Tpm3.1-containing actin microfilaments in a dose-dependent manner |
| CC(C)(C)c1ccc(S(=O)(=O)n2ccc(C(=O)Nc3ccc(F)cc3)c2)cc1 [Compound 92, 1-((4-(tert-butyl)phenyl)sulfonyl)-N-(4-fluorophenyl)-1H-pyrrole-3-carboxamide] | 4 | 17.3 | 16.6 |  |  |  |  |  |  |  |  |  |  |
